The source of these data is patent US6737383B1, “Herbicidal oxadiazolidines” (priority 1999, dated 2004).

The subject of one series is windgrass. In words: Test E windgrass. Type of series: in vivo, Apera spica-venti. The conditions noted are these: Postemergence. The gist of the method: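 Visually scored herbicidal effect relative to untreated plants, taken ~21 to 28 days post-application; compound in solvent with surfactant; postemergence sprays at the 1- to 4-leaf stage.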
The subject of a further series is maize hybrid P33G26. As to the kind of experiment: Test G maize injury with safener-treated seed. The conditions noted are these: 28 days after application. In a few lines: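 Maize hybrid P33G26 seed, treated with dichlormid, fenchlorazole-ethyl or naphthalic anhydride or left untreated, was sown in soil pots, then sprayed pre-emergence with several compound rates at 310 L/ha. Plants grew in a greenhouse (14 h day, about 27/24 °C day/night), with 4–5 replicates. Injury was scored visually against untreated controls 28 days after application.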

The test system of another series is sourgrass. In words: Test D sourgrass. Type of series: in vivo, Trichachne insularis. The following applies: Postemergence, 0 to 100 scale.
A further series relates to common poppy. In words: Test E common poppy. The conditions noted are these: Preemergence. Type of series: in vivo, Papaver rhoeas.
In series [1] the test system is Green foxtail. As to the kind of experiment: Test D green foxtail. The following applies: Postemergence, 0 to 100 scale. Type of series: in vivo.
Series [2] has as its system Green foxtail. In words: Test D green foxtail. Type of series: in vivo. The conditions noted are these: Postemergence, 0 to 100 scale, 0 no injury, 100 complete control.
The subject of series [3] is Green foxtail. In words: Test D green foxtail. Type of series: in vivo. The following applies: Postemergence, 0 to 100 scale. The source holds these as a separate data set.
Series [4] relates to Green foxtail. In words: Test D green foxtail. Type of series: in vivo. The conditions noted are these: Postemergence, 0 to 100 scale, 0 no injury, 100 complete control. This is another data set of the same source.
Where [5] appears, read: Rate 125 g/ha, 0 no injury, 100 complete control.

Structures are written as SMILES.

For the compound `C=CCn1c(=O)on(C(=O)N(c2ccc(F)cc2)C(C)C)c1=O` [Compound 146], the “Plant response rating, Windgrass” value with windgrass (Rate 62 g/ha, 0 to 100 scale) was determined as 85. In the series on windgrass (Rate 250 g/ha, 0 to 100 scale where 0 is no effect and 100 is complete control), the “Windgrass plant response rating” value is given as 95. Further, the “Mean plant response rating, maize” value with maize hybrid P33G26 (Safener Dichlormid (seed treatment), Rate 140 g ai/ha) was 1 percent control; in the series on maize hybrid P33G26 (Safener Dichlormid (seed treatment), Rate 280 g ai/ha), 1 percent control; with maize hybrid P33G26 (Safener Dichlormid (seed treatment), Rate 560 g ai/ha), 4 percent control; in the series with maize hybrid P33G26 (Safener Dichlormid (seed treatment), Rate 1120 g ai/ha) it was 4 percent control; with maize hybrid P33G26 (Safener Fenchlorazole-ethyl (seed treatment), Rate 140 g ai/ha) it was 3 percent control; in the series with maize hybrid P33G26 (Safener Fenchlorazole-ethyl (seed treatment), Rate 280 g ai/ha), 74 percent control. Also, the “Mean plant response rating, maize” value was found to be 78 percent control in the series with maize hybrid P33G26 (Safener Fenchlorazole-ethyl (seed treatment), Rate 560 g ai/ha); 85 percent control in the series on maize hybrid P33G26 (Safener Fenchlorazole-ethyl (seed treatment), Rate 1120 g ai/ha); 49 percent control in the series on maize hybrid P33G26 (Safener None, Rate 140 g ai/ha); 73 percent control in the series with maize hybrid P33G26 (Safener None, Rate 280 g ai/ha); 80 percent control in the series with maize hybrid P33G26 (Safener None, Rate 560 g ai/ha); 85 percent control with maize hybrid P33G26 (Safener None, Rate 1120 g ai/ha). Also, the “Mean plant response rating, maize” value in the series with maize hybrid P33G26 (Safener naphthalic anhydride (seed treatment), Rate 140 g ai/ha) worked out at 0 percent control; in the series with maize hybrid P33G26 (Safener naphthalic anhydride (seed treatment), Rate 1120 g ai/ha), 35 percent control. Further, the “Sourgrass plant response rating” value with sourgrass (Rate 64 g/ha, 0 no injury, 100 complete control) was 50; in the series with sourgrass (setting [5]), 30. In addition, the “Plant response rating, Sourgrass” value is listed as 50 in the series with sourgrass (setting [5]), 80 with sourgrass (Rate 250 g/ha) and 80 with sourgrass (Rate 500 g/ha). For the same compound, the “Plant response rating, Common poppy” value in the series on common poppy (Rate 125 g/ha, 0 to 100 scale (0 no effect, 100 complete control)) is listed as 100; with common poppy (Rate 500 g/ha, 0 to 100 scale where 0 is no effect and 100 is complete control), 100. For the same compound, the “Common poppy plant response rating (0 to 100 scale)” value in the series on common poppy (Rate 250 g/ha) was determined as 100.
On to `CC(C)N(C(=O)n1oc(=O)n(C2CC2)c1=O)c1ccc(F)cc1F` [Compound 299], for which the “Plant response rating, Green foxtail” value in the series on Green foxtail [1] (Rate 250 g/ha), in the series with Green foxtail [1] (Rate 500 g/ha), with Green foxtail [2] (Rate 64 g/ha), in the series on Green foxtail [2] (Rate 125 g/ha), with Green foxtail [3] (Rate 250 g/ha) and in the series with Green foxtail [3] (Rate 500 g/ha) was 100 each time. For the same compound, the “Green foxtail plant response rating” value in the series on Green foxtail [4] (Rate 64 g/ha) and in the series on Green foxtail [4] (Rate 125 g/ha) was 100 throughout.
